Where two headings read alike, the source gives them in different places.
Columns and labels:
Human leukocyte MPO [1] = target: T1, Human leukocyte MPO (Homo sapiens, UniProt P05164); assay: MPO peroxidatic activity assay (AmplexRed oxidation); type: biochemical; design: Human leukocyte MPO (EC 1.7.1.11) was purchased from Planta Natural Products; purchased Planta Natural Products (Vienna, Austria); host or cells: human leukocytes
Description: MPO peroxidase activity was kinetically monitored using the artificial peroxidase substrate AmplexRed, which is oxidized to resorufin and can be detected by fluorescence.[34] Reactions were carried out in phosphate buffer (50 mM, pH 7.4), MPO (100 pM), cetyltrimethylammonium chloride (0.03%), diethylenetriaminepentaacetic acid (100 μM), AmplexRed (30 μM), and compounds (20 μM in 0.3% DMSO). The reaction was started by adding 2 μM hydrogen peroxide. The reaction product was assessed by fluorescence at λex = 530 and λem = 580 nm. The initial velocity was calculated by the slope of the linear regression in the first minutes of reaction. Inhibition is represented as a percentage of the control (vehicle).

human neutrophils = assay: MSU-induced NETosis assay (sytox green fluorescence microscopy); type: cell-based; details: 20 μM compound, MSU 250 μg/mL, 90 min
Description: NETosis assay was conducted on human neutrophils adhered to lysine-coated glass coverslips as previously reported.[80] After neutrophils’ adhesion, the compounds were diluted in RPMI medium (free of phenol red and fetal bovine serum) at a final concentration of 20 μM (0.15% DMSO) and added to the cells for 15 min at 37 °C in a 5% CO2 atmosphere. Then, MSU crystals (250 μg/mL), known to induce NETosis, were added. After 90 min incubation, the medium was carefully removed, paraformaldehyde was added (500 μL at 4%), and incubated at 4 °C overnight. In the following day, paraformaldehyde was removed, and cells were washed threefold with tris-HCl buffer (20 mM, pH 7.4) and kept into the same buffer at 4 °C. Tris-HCl buffer was carefully removed, and DNA was stained by adding 500 μL SYTOX Green (500 nM diluted in tris-HCl buffer). The system was kept for 30 min at room temperature, protected from light. After staining, the coverslips were mounted over the glass slides using ProLong Diamond Antifade Mountant fixation medium. Fluorescence images were acquired in an Axiovert 200 (Zeiss) fluorescence microscope with a 20x/0.4 objective and Zeiss Filter Set 09, λex = 450–490 nm, λem = above 515 nm. Images were taken by an Axiocam HR R3 camera device.

[2] = system: PARP1 in RPE1-hTERT cells; assay: PARP1 off-target assay: H2O2-induced ADP-ribosylation; type: cell-based; details: RL6 1, 10 and 50 μM; olaparib 10 μM; 600 μM H2O2 for 10 min
Description: After 1 h of pretreatment, the cells were treated with 600 μM H2O2 (Sigma) in PBS for 10 min at 37 °C. Cells were lysed in preheated Laemmli buffer devoid of beta-mercaptoethanol and bromophenol blue, and the lysates were boiled for 15 min. Protein concentration was determined using a BCA protein quantification kit (Pierce) and normalized. Beta-mercaptoethanol and bromophenol blue were then added, and the lysates were boiled again for 15 min. Proteins were separated in a 10% SDS-PAGE gel and then transferred to nitrocellulose membranes (Bio-Rad). […] Membranes were incubated with ECL Prime (Amersham), and the signals were detected using a Chemidoc MP Imaging System (Bio-Rad). […] Signals were quantified using ImageJ software.
(C) ADP-ribosylation in RPE1-hTERT cells was
triggered by H2O2 (600 µM) for 10 min. (D) Gel densitometry quantified by ImageJ
software, n=3. A concentration of 0.1% DMSO was used.

Human leukocyte MPO [3] = target: T1, Human leukocyte MPO; assay: Reversibility test (residual peroxidase activity after 200-fold dilution); type: biochemical; design: Human leukocyte MPO (EC 1.7.1.11) was purchased from Planta Natural Products; purchased Planta Natural Products (Vienna, Austria); host or cells: human leukocytes; details: 100 nM MPO, 20 μM inhibitor, 30 min, then 200-fold dilution
Description: Reversibility of the inhibition was analyzed by peroxidase residual activity.[77] […] After incubation, the system was diluted 200-fold using acetate buffer ([…], pH 5.4) in the presence of TMB (2 mM dissolved in 10% dimethylformamide). After a new hydrogen peroxide addition (2 μM), the oxidation of TMB was quantified at 655 nm.

[4] = Stopped-flow reaction of compound with HOCl (fluorescence decay); details: 20 μM compound, 250 μM HOCl, up to 1 s
Description: The fast oxidation of RL7 was monitored in a stopped-flow spectrophotometer (Applied Photophysics SX20) using the intrinsic RL7 fluorescence (λex = 306 nm and λem = above 340 nm). The reaction of RL7 (20 μM in 0.3% DMSO) with HOCl (250 μM) was performed in phosphate buffer (20 mM, pH 7.4), diethylenetriaminepentaacetic acid (100 μM), and NaCl (140 mM). Data were obtained within 1 s.

T1 sequence (P05164 279-745 limits assumed): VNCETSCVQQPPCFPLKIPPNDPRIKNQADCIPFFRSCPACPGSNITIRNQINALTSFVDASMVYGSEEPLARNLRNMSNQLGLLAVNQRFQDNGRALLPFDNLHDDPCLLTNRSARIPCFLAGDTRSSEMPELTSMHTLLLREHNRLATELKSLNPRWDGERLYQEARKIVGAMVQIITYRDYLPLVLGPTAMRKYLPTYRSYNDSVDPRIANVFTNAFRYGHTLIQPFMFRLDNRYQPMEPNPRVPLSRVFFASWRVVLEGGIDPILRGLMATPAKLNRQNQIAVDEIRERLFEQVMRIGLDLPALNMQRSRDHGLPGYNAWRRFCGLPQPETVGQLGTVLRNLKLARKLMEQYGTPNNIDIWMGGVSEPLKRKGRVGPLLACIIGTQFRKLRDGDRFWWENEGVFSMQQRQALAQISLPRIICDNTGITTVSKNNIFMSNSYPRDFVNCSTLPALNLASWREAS
T1 sequence (P05164 165-278 limits assumed): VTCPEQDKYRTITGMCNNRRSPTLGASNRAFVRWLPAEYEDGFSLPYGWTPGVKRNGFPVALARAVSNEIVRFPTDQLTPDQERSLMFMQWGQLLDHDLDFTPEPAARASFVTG

With `Nc1cc2c3c(cccc3c1)C(=O)N(N)C2=O` [RL6] the inhibition at 20 µM (Human leukocyte MPO [1]; 20 μM compound, 100 pM MPO, 30 μM AmplexRed, 2 μM H2O2, pH 7.4, read-out: % Inhibition (at 20 μM) Peroxidatic) was 73 ± 13.4%, the inhibition at 20 µM (Human leukocyte MPO [1]; supplementary csv copy of Table 1, read-out: % Inhibition (Peroxidatic)) was 73 ± 13.4% and the “inhibition of MSU-induced NETosis” value (human neutrophils) was “strongly inhibited”. The “inhibition of H2O2-induced ADP-ribosylation” value [2] was “failed to inhibit” and the “reversibility of MPO inhibition (residual peroxidase activity)” value (Human leukocyte MPO [3]) was “reversible inhibition”.
For `CN1CCc2nc3sc(C(=O)Nc4cccc(C#N)c4)c(N)c3cc2C1` [RL7], the “% Inhibition (at 20 μM) Peroxidatic” value (Human leukocyte MPO [1]; 20 μM compound, 100 pM MPO, 30 μM AmplexRed, 2 μM H2O2, pH 7.4) was “INACTIVE”, the “% Inhibition (Peroxidatic)” value (Human leukocyte MPO [1]; supplementary csv copy of Table 1) was “INACTIVE” and the “reaction with HOCl (fluorescence decay)” value [4] was “rapidly reacts with HOCl”. The “inhibition of MSU-induced NETosis” value (human neutrophils) was “to a lesser extent”.

Reference: PMC11284790, “Targeting Myeloperoxidase Ameliorates Gouty Arthritis: A Virtual Screening Success Story” (Journal of Medicinal Chemistry, 2024)
